Test results reported in patent US12257367B2, “Biomaterials for biological tissue repair” (KONAN GAKUEN, priority 2019, dated 2025).

Tests used:
[1] = test system: mouse tissues (lung, cardiac muscle, skeletal muscle, kidney); test: Azide modification of mouse tissues by Ac4ManNAz administration and hydrogel fabrication using biological tissue; type: in vivo; details: intraperitoneal once a day for seven days
Protocol: 6 mg of Ac4ManNAz was dissolved in a mixed solvent of DMSO and PBS solution (58% DMSO) to prepare a Ac4ManNAz solution. 200 μL of the resulting Ac4ManNAz solution was intraperitoneally administered to a mouse (ICR, 5 weeks old, female) once a day for seven consecutive days for azide-modification of the mouse tissues. A week later, lung, cardiac muscle, skeletal muscle and kidney of the mouse were resected. The resected tissues were allowed to react with 100 μM of carboxyrhodamine 110 DBCO for an hour, then added with a PBS solution, vortexed and left to stand still for 10 minutes. This operation was repeated for 3 times. As control, tissues resected from a mouse that was not administered with the Ac4ManNAz solution were allowed to react with carboxyrhodamine 110 DBCO for an hour. […] In order to carry out gelation reaction using mouse tissues, the Ac4ManNAz solution was administered to a mouse in the same manner as described above and lung, brain, muscle tissue, kidney, heart and liver were resected from the mouse.

[2] = test system: C2C12 cells; test: Azide modification of cell surface by sugar metabolism of Ac4ManNAz, detected with carboxyrhodamine 110 DBCO; type: cell-based, mouse
Protocol: C2C12 cells were cultured in a DMEM medium containing 100 μM of Ac4ManNAz for 3 days to allow biosynthesis of azide-modified sialic acid at the end of the glycan of the cell membrane protein via cell sugar metabolism reaction of Ac4ManNAz. The cultured cells were washed with PBS twice. To confirm whether an azide group was introduced, carboxyrhodamine 110 DBCO (final concentration 5 μM) was added to the medium and allowed to react in the CO2 incubator for an hour. Subsequently, the cells were washed with PBS twice, to which a live cell imaging buffer (composition of the solution: 140 mM NaCl, 2.5 mM KCl, 1.8 mM CaCl2), 1.0 mM MgCl2 and 20 mM HEPES pH 7.4) was added to observe the cells with a confocal microscope.

[3] = test system: mouse myoblasts (C2C12 cells); test: Cytotoxicity test of Ac4ManNAz by WST-1 assay; type: cell-based
Protocol: In order to examine the cytotoxicity of the synthesized Ac4ManNAz, mouse myoblasts (C2C12 cells) were used to evaluate toxicity to cells by WST-1 assay. The cells were seeded in a 96-well plate at 1×10^4 cells/well, to which a predetermined amount of Ac4ManNAz dissolved in a DMEM medium (final concentrations of 0, 0.0001, 0.001, 0.01, 0.1 and 1 mM) was added to culture the resultant in a CO2 incubator at 37° C. for one day. To each well, 10 μL of a WST-1 solution (WST-1:1-Methoxy PMS=9:1) was added to allow reaction in the CO2 incubator for 2 hours. Thereafter, absorbance was determined with a microplate reader. Cell viability was calculated from the absorbance.

CC(=O)OC[C@H]1OC(OC(C)=O)[C@@H](NC(=O)CN=[N+]=[N-])[C@@H](OC(C)=O)[C@@H]1OC(C)=O (some centres unmarked) [Ac4ManNAz]
azide modification of tissues in living body (FITC-derived green fluorescence after bAlg-DBCO-FITC) [1]: green fluorescence was observed in all of the tissues
carboxyrhodamine 110-derived green fluorescence of cells ([2]; C2C12 cells cultured with 100 μM for 3 days, confocal microscope): strong green fluorescence was observed only on the surface of the cell membrane
concentration that allows a maximum amount of azide groups to be introduced into the cell surface (fluorescence intensity plateau) ([2]; C2C12 cells, carboxyrhodamine 110 DBCO): 100 µM
amount applicable without having toxicity to cells ([3]; WST-1): 5 to 100 µM
cell viability ([3]; WST-1, all concentrations (0-1 mM), one day): ≥ 90%
